Results on seven compounds are retold here after PubChem BioAssay (NCI).

Test systems include HCT-116 colon; NCI-H522 lung; MOLT-4 leukemia; MDA-MB-231 breast; T-47D breast; OVCAR-5 ovarian; OVCAR-8 ovarian; HS 578T breast; TK-10 renal; U251 CNS.
Holding throughout (assay): NCI tumour cell line growth inhibition, 48 h

SMILES strings stand for the structures. Where “and” joins values, the source holds several entries; their conditions need not be identical. Equal entries are not always repeated.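 A five-concentration, 48-hour dose response in 96-well plates underlies each endpoint, interpolated linearly between surrounding concentrations. The concentration for 50% growth inhibition is given as GI50. TGI denotes the concentration required for complete inhibition of growth.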 Bounds are passed on as bounds.

With `O=S(=O)(NCCCNc1nccc(-c2c(-c3ccc(F)cc3)nc3sccn23)n1)c1ccc(F)cc1`, the GI50 with HCT-116 colon is 5.55 µM; in the test on NCI-H522 lung, 10 µM; with MOLT-4 leukemia, 8.08 µM; in the test with MDA-MB-231 breast it was 14.2 µM; with T-47D breast it was 2.28 µM; in the test on OVCAR-5 ovarian, more than 100 µM. Further, the GI50 is 4.56 µM in the test with OVCAR-8 ovarian, 9.66 µM in the test on HS 578T breast, 19.2 µM with TK-10 renal and 8.87 µM in the test with U251 CNS. Further, the TGI with HCT-116 colon was more than 100 µM; with NCI-H522 lung it was more than 100 µM; with MOLT-4 leukemia, more than 100 µM; in the test on MDA-MB-231 breast it was more than 100 µM; in the test on T-47D breast, 13.2 µM; in the test on OVCAR-5 ovarian, more than 100 µM. The TGI with OVCAR-8 ovarian, in the test on HS 578T breast, with TK-10 renal and with U251 CNS was more than 100 µM each time.

For the compound `O=C1/C(=C/c2ccccc2[N+](=O)[O-])COc2ccc(O)cc21`, the GI50 with HCT-116 colon is 0.352 µM; in the test with NCI-H522 lung, 0.684 µM; in the test with MOLT-4 leukemia, 2.27 µM; in the test on MDA-MB-231 breast it was 1.77 µM; in the test with T-47D breast, 2.36 µM; with OVCAR-5 ovarian, 1.73 µM. Besides, the GI50 is 2.3 µM with OVCAR-8 ovarian, 2.39 µM in the test with HS 578T breast, 3.44 µM with TK-10 renal and 2.41 µM in the test with U251 CNS. In addition, the TGI with HCT-116 colon turned out to be 1.57 µM; in the test on NCI-H522 lung it was 3.65 µM; with MOLT-4 leukemia it was 8.23 µM; in the test on MDA-MB-231 breast it was 3.69 µM; with T-47D breast, 17.6 µM; with OVCAR-5 ovarian, 3.64 µM. Besides, the TGI in the test with OVCAR-8 ovarian came to 47.8 µM; with HS 578T breast, 41.6 µM; with TK-10 renal it was 13.9 µM; in the test with U251 CNS, 8.74 µM.

With `CN(C)c1nc(N)c(C#N)c(C#N)c1C#N`, the TGI with HCT-116 colon was more than 10 µM; in the test with NCI-H522 lung it was 3.8 µM; in the test with MOLT-4 leukemia it was more than 10 µM; in the test with MDA-MB-231 breast, more than 10 µM; with T-47D breast, more than 10 µM; in the test on OVCAR-5 ovarian, more than 10 µM. In addition, the TGI with OVCAR-8 ovarian, with HS 578T breast, with TK-10 renal and in the test with U251 CNS was more than 10 µM each time.

Take `COc1cc(C(=O)/C=C/c2c(C(F)(F)F)nc3ccccn23)cc(OC)c1OC`: the GI50 is 1.26 µM with HCT-116 colon; 1.77 µM with NCI-H522 lung; 3.73 µM in the test on MOLT-4 leukemia; 4.59 µM in the test with MDA-MB-231 breast; 3.52 µM in the test with T-47D breast; 1.98 µM in the test with OVCAR-5 ovarian. Further, the GI50 in the test with OVCAR-8 ovarian is 3.39 µM; with HS 578T breast, 3.27 µM; in the test with TK-10 renal it was 2.09 µM; with U251 CNS it was 1.29 µM. The TGI is 3.21 µM in the test with HCT-116 colon; 3.91 µM with NCI-H522 lung; more than 100 µM in the test on MOLT-4 leukemia; 19.3 µM in the test on MDA-MB-231 breast; 15 µM with T-47D breast; 4.02 µM in the test with OVCAR-5 ovarian. Besides, the TGI is more than 100 µM in the test on OVCAR-8 ovarian, 54.6 µM with HS 578T breast, 4.33 µM in the test with TK-10 renal and 3.31 µM in the test with U251 CNS.

Take `c1ccc(CN2COc3c(ccc4c5c(ccc34)CN(Cc3ccccc3)CO5)C2)cc1`: the TGI in the test on HCT-116 colon, in the test with NCI-H522 lung, in the test with MOLT-4 leukemia, with MDA-MB-231 breast, with T-47D breast and in the test on OVCAR-5 ovarian was more than 100 µM in each case. Further, the TGI in the test on OVCAR-8 ovarian, in the test with HS 578T breast, in the test on TK-10 renal and with U251 CNS was more than 100 µM in each case.

For `S=C(NCc1ccc2c(c1)OCO2)N1CCN(c2ncnc3c2oc2ccccc23)CC1`, the GI50 in the test on HCT-116 colon was 3.68 µM; in the test with NCI-H522 lung, 24 µM; in the test with MOLT-4 leukemia, 3.95 µM; in the test on MDA-MB-231 breast, more than 100 µM; in the test on T-47D breast, 2.3 µM; in the test with OVCAR-5 ovarian it was more than 100 µM. Moreover, the GI50 in the test with OVCAR-8 ovarian was 5.43 µM; in the test on HS 578T breast it was more than 100 µM; in the test on TK-10 renal, 1.12 µM; in the test on U251 CNS, 27.2 µM. For the same compound, the TGI in the test on HCT-116 colon, in the test with NCI-H522 lung, in the test with MOLT-4 leukemia, with MDA-MB-231 breast, with T-47D breast and with OVCAR-5 ovarian was more than 100 µM each time. Further, the TGI in the test on OVCAR-8 ovarian, in the test with HS 578T breast and in the test on U251 CNS was more than 100 µM throughout.

In the case of `O=C(c1cc(Cc2n[nH]c(=O)c3ccccc23)ccc1F)N1CCN(C(=O)C2CC2)CC1`, the GI50 is > 100 µM and 99.1 µM in the test on HCT-116 colon; more than 100 µM in the test on NCI-H522 lung; 46.7 µM and 22.4 µM in the test with MOLT-4 leukemia; more than 100 µM with MDA-MB-231 breast; 31.5 µM in the test on T-47D breast; more than 100 µM in the test with OVCAR-5 ovarian. The GI50 with OVCAR-8 ovarian was more than 100 µM; in the test on HS 578T breast it was 12.4 µM and > 100 µM; with TK-10 renal it was > 100 µM and 48.1 µM; in the test with U251 CNS, 35.1 µM and 31.5 µM. For the same compound, the TGI with HCT-116 colon, in the test on NCI-H522 lung, with MOLT-4 leukemia, in the test with MDA-MB-231 breast, with T-47D breast and in the test on OVCAR-5 ovarian was more than 100 µM in each case. The TGI in the test on OVCAR-8 ovarian, in the test with HS 578T breast, with TK-10 renal and in the test on U251 CNS was more than 100 µM each time.
